The values below come from patent US20080014211A1, “Methods to elicit, enhance and sustain immune responses against MHC class I-restricted epitopes, for prophylactic and therapeutic purposes” (priority 2006, published 2008).

The subject of experiment [1] is CD4+CD25+Fox P3+ T-regulatory cells. The following applies: tumor bearing mice, one injection 100 mg/kg on Day 46, spleens day 49; p=0.02. As for the experimental part: Control mice received either poyIC or saline.
Mice received one injection of cyclophosphamide (CTX, 100 mg/kg) on days 46 […]. On day 49, spleens were removed from 3 mice in each group and the percentage of CD25^+ and Fox P3^+ cells were calculated within the total CD4^+ population (FIG. 6).

Experiment [2] relates to HPV-16 transformed tumor cells. The experiment is described as follows: Adjunctive therapy in late stage cancer, tumor progression (Example 10). In kind it is in vivo, C57BL/6 mice. The following applies: CTX 30 mg/kg Day 14, 18, immunization Day 20, 24, 34, 38, n=20. The text has this: Tumor progression (FIG. 11, Panel A) and immune response (FIG. 11, Panel B) was compared to untreated tumor control mice (n=20).

Experiment [3] has as its system HPV-16 transformed tumor cells. The experiment is described as follows: Adjunctive therapy, survival (Kaplan-Meier) (Example 11). In kind it is in vivo, C57BL/6 mice. The following applies: two therapeutic cycles; Kaplan-Meier estimates; n=20.
Method: The effect of adjunctive therapy on survival was also evaluated in C57BL/6 mice inoculated with 10^5 HPV-16 transformed tumor cells as described in Example 10. A second therapeutic cycle was administered in which animals received CTX (30 mg/kg) on Day 46 and 50 (n=20), immunization with E749-57 HPV peptide and dsRNA (25 μg/Day) in bilateral inguinal lymph nodes on Day 52, 56, 65, and 69 (n=20), or were treated with a combination of CTX and immunotherapy (n=20). Kaplan-Meier (product-limit) estimates of the survival function were obtained for each of the four conditions (Control, CTX Only, Immunotherapy Only and CTX/Immunotherapy Combined), as shown in FIG. 12. Log-Rank tests were used to compare the four survival curves.
The subject of experiment [4] is HPV-16 transformed tumor cells. The experiment is described as follows: Adjuvant efficacy: immunotherapy after primary tumor removal (Example 13). In kind it is in vivo, C57BL/6 mice. The protocol:
A separate cohort is left untreated and tumors are removed at day 20 using surgery or irradiated using conventional radiotherapy. […] Additional control arms are treated with CTX, radiotherapy or surgery but not immunized.

The subject of experiment [5] is HPV-16 transformed tumor cells. The experiment is described as follows: Neoadjuvant efficacy: immunotherapy prior to primary tumor treatment (Example 14). In kind it is in vivo, C57BL/6 mice. As for the experimental part: Then mice are treated with CTX (100 mg/kg) starting on day 30 or by radiotherapy, every other day until the animals reach complete remission (FIG. 15). A separate cohort has the tumor removed on day 30 but no treatment with CTX. The animals are then observed for tumor relapse.

The subject of experiment [6] is HPV-16 transformed tumor cells. The experiment is described as follows: Consolidation therapy: immunotherapy post chemotherapy (Example 15). In kind it is in vivo, C57BL/6 mice. The following applies: CTX 100 or 30 mg/kg on days 14 and 16. As for the experimental part:
The animals are rested for 7 days until the number of lymphocytes in the blood reaches normal levels. At that point, all animals show reduced disease or complete remission relative to pre-treatment stage. […] Additional control arms are treated with CTX or radiotherapy but not immunized.

For experiment [7], the system named is CD4+/CD25+/FoxP3+ T regulatory cells. The following applies: intraperitoneal 100 mg/kg; mice bearing HPV-16 transformed tumors.
Experiment [8] relates to HPV-16 transformed tumor cells. In words: Adjunctive therapy: immunotherapy accompanying chemotherapy (Example 16). The following applies: CTX 100 or 30 mg/kg on days 14 and 16.
Method: C57BL/6 mice are inoculated subcutaneously with 10^5 HPV-16 transformed tumor cells on Day 0, and treated with CTX (100 or 30 mg/kg) on days 14 and 16 or treated by radiotherapy. […] Additional control arms are treated with CTX but not immunized.

With `O=P1(N(CCCl)CCCl)NCCCO1` (centres unmarked) [cyclophosphamide], the “levels of T-regulatory cells (CD25+ Fox P3+ within total CD4+) in spleen” value in experiment [1] was “significantly reduced levels”. Further, the “tumor regression compared to untreated tumor controls” value in experiment [2] is “did not significantly induce tumor regression”. Further, the median survival time in experiment [3] is 68 days. Further, the “remission after primary treatment” value in experiment [4] (CTX 100 mg/kg from day 14 every other day) is “attain complete remission”. In experiment [4] (after complete remission), the “relapse without follow up immunotherapy” value is “relapse in a significant number”. For the same molecule, in experiment [5] (CTX 100 mg/kg from day 30 every other day), the “remission in unimmunized animals” value was “attain partial or complete remission”. In experiment [5] (after CTX, radiotherapy or surgery), the “relapse in unimmunized animals” value is recorded as “relapse in a significant number”. Further, the remission after treatment result in experiment [6] is reported as “attain partial remission or complete remission within 10 days after treatment”. For the same molecule, in experiment [7], the “level of T-regs in spleen” value is “reduced” and the “level of T-regs in the tumor” value is on record as “reduced”. In experiment [8], the “remission after CTX treatment” value is “attain partial remission or complete remission within 20 days after CTX treatment”.
